Reference: patent US20260001928A1 (CORTERIA PHARMACEUTICALS, priority 2022, published 2026)
pEC50: −log10 of the molar value. *1 amine or outer side, *2 acyl side, *3 side chain or, on linkers, in order; H or OH if unused. Where a SMILES comes first, the peptide text is derived from it. Side-chain parts run from the residue outwards. [ ]: non-standard residue; d: D form. The star is where a group is joined. C18 diacid = O=C(O)CCCCCCCCCCCCCCCCC(=O)*; C16 diacid = O=C(O)CCCCCCCCCCCCCCC(=O)*; γGlu = O=C(O)[C@H](CCC(=O)[*:2])N[*:1]; NMeI = CC[C@H](C)[C@H](NC)C(=O)O; Abu = CC[C@H](N)C(=O)O; Pentanoyl = CCCCC(=O)*; Aib = CC(C)(N)C(=O)O

How the values were obtained:
human CRF2a receptor = target: T1, human CRF2a receptor (Homo sapiens, UniProt Q13324); experiment: Activity at human CRF2a receptor, cAMP functional assay in TeloHEAC cells; assay type: cell-based; details: TeloHEAC cells stably expressing human CRF2a receptor, relative to urocortin 2 (100 nM = 100%)
T1 construct: expressed in transfected cells; host or cells: TeloHEAC cells
T1 sequence (Q13324 1-411): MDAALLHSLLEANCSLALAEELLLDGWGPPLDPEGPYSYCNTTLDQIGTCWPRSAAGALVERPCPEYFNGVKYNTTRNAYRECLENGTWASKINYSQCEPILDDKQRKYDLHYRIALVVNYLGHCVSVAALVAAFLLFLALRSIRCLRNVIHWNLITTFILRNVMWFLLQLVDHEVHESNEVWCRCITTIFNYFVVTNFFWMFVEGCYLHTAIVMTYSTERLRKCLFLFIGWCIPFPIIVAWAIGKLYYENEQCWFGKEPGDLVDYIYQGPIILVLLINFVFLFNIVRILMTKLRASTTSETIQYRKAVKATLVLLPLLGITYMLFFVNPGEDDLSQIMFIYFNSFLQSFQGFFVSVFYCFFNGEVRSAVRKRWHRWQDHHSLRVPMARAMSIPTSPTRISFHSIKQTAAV
Summary of the method: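 cAMP accumulation was measured by HTRF 665/620 nm ratio after 30 min at 37° C compound exposure (16 twofold dilutions) of CRF2a-expressing TeloHEAC cells, 10000/well, in HEPES-buffered HBSS plus IBMX. Activity was normalised to urocortin 2 at 100 nM (100%), and EC50 was the concentration giving half-maximal activation.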

CFR1R receptor = target: T2, CFR1R receptor (Homo sapiens, UniProt P34998); experiment: Activity at anti-target CFR1R receptor, cAMP assay in CRF1R-overexpression CHO-K1 cells; assay type: cell-based; details: 100% = Sauvagine at 100 nM; for pEC50: cAMP
T2 construct: host or cells: CHO-K1 (clone 2)
T2 sequence (P34998 24-415): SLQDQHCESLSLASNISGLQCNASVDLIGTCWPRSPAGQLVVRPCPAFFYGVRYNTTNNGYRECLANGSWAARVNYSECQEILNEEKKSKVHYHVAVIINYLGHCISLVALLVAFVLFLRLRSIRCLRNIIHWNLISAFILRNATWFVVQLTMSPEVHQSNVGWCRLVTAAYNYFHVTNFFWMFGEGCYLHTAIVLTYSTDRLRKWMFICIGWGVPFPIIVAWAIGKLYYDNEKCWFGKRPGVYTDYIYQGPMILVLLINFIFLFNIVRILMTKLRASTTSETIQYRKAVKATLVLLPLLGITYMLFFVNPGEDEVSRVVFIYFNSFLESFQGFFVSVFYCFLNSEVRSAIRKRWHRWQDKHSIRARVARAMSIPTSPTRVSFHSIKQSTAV
Summary of the method: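 Grow clone 2 to near confluence at 37° C. under 5% CO2 in F12 (Hams) with 10% FBS and G418, harvest, and freeze in 10% DMSO. Thaw and plate at 4000 cells/well. Then proceed per the TeloHAEC method, normalising to Sauvagine 100 nM as maximum.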

[1] = In vitro plasma stability, human plasma; assay type: in vitro ADME; design: dose or concentration left out as unconfirmed; details: Human PLM, 37° C.
Method: In vitro plasma metabolic stability was studied in male Sprague Dawley rats and human. Test compounds were incubated at 3 M for 2 hours at 37° C. At each time point (0, 0.25, 1 and 2 h), samples were prepared for analysis by means of a single step protein precipitation technique by adding 150 μL of ethanol, 0.1% formic acid to 50 μL aliquots of plasma. Samples were mixed by vortex for homogeneity and then subjected to centrifugation at 14000 rpm for 15 min. The supernatant (100 μL) was collected, diluted with 100 μL of water, 0.1% formic acid and analyzed by LC-HRMS (TripleTOF 6600+, AB Sciex). For each test compound, the area ratios at each time point were compared to the 0 h area ratio and converted to a percentage remaining.

[2] = In vitro plasma stability, rat plasma; assay type: in vitro ADME; design: remaining at 2 h: dose or concentration left out as unconfirmed; details: male, Sprague Dawley, plasma; Rat PLM, 37° C.
[3] = In vitro plasma stability, minipig plasma; assay type: in vitro ADME; design: remaining at 2 h: dose or concentration left out as unconfirmed; details: pig, plasma; Minipig PLM, 37° C.
[4] = Chemical stability in buffer (pH 7.4 / pH 4.5), % purity loss; assay type: physicochemical; details: 40° C. vs 5° C., 14 or 28 days; for Buffer stability pH 7.4 % purity loss: 100 mM phosphate buffer pH 7.4
Summary of the method: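 LC-UV gave % loss after 14 or 28 days of storage at 5 °C or 40 °C. Samples were diluted supernatants from compound incubated 1 h at room temperature at 10 mg/mL target, in 100 mM acetate pH 4.5 or 100 mM phosphate pH 7.4.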

Sprague Dawley rats = experiment: Effect on systolic blood pressure, telemetry in Sprague Dawley rats; assay type: in vivo, rat; details: 0.1 mg/kg SC; for Systolic blood pressure (Mean) % change from baseline, 8 h / Systolic blood pressure (Mean) % change from baseline, 12 h / Systolic blood pressure (Mean) % change from baseline, 24 h: n=2; for Duration of action: last time point with an effect on BP still observed
Summary of the method: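 Values are % change from a 1 h pre-dose baseline in systolic pressure, tracked by telemetry for up to 48 hours after a single 0.1 mg/kg subcutaneous dose. Rats (Sprague Dawley, n=2 per peptide) carried aortic catheters and recovered at least 10 days post-surgery; duration of action marks the last time point still showing an effect.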

rat CRF2 a = target: T3, rat CRF2 a (Rattus norvegicus, UniProt P47866); experiment: Activity at rat CRF2 a, cAMP assay in A7R5 rat aortic smooth muscle cells; assay type: cell-based; details: 0% HSA, 100% = Sauvagine at 100 nM
T3 construct: host or cells: A7R5 rat aortic smooth muscle cells
Summary of the method: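 cAMP response measured in frozen-stock A7R5 rat aortic smooth muscle cells, 5000 cells/well final. 100% activation defined by Sauvagine at 100 nM in control wells.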

[5] = In vitro subcutaneous tissue supernatant (SCts) stability and metabolite identification, rat; assay type: in vitro ADME; design: remaining at 2 h: dose or concentration left out as unconfirmed; details: male, Sprague Dawley; rat subcutaneous tissue supernatant (SCts), 37° C, 2 h
[6] = Pharmacokinetics in male Sprague Dawley rats after subcutaneous administration; assay type: in vivo; details: plasma, rat, SC, 0.1 mg/kg
[7] = as above; assay type: in vivo; details: plasma, rat
Rat PLM = details: male Sprague Dawley rats, 37° C., up to 2 hours
Human PLM = details: 37° C., up to 2 hours

T3 sequence (P47866 27-431 isoform P47866-2 limits assumed): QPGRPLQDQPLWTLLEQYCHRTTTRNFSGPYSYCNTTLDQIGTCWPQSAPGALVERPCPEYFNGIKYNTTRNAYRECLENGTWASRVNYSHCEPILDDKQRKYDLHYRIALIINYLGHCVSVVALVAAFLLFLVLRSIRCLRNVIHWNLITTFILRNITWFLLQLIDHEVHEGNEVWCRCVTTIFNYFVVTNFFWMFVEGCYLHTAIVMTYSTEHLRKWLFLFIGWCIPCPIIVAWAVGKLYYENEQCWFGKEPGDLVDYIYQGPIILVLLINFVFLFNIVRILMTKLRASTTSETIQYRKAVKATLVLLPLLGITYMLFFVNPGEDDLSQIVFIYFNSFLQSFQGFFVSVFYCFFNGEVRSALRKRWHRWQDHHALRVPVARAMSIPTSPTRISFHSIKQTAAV

Compound	pEC50 (human CRF2a receptor)	Emax (% I) (CFR1R receptor)	pEC50 (CFR1R receptor)	remaining at 2 h [1]	remaining at 2 h [2]	remaining at 2 h [3]	Buffer stability pH 7.4 % purity loss [4]	Systolic blood pressure (Mean) % change from baseline, 8 h (Sprague Dawley rats)	Systolic blood pressure (Mean) % change from baseline, 12 h (Sprague Dawley rats)	Systolic blood pressure (Mean) % change from baseline, 24 h (Sprague Dawley rats)	Duration of action (Sprague Dawley rats)	other results
CC[C@H](NC(=O)[C@H](CC(N)=O)NC(=O)[C@@H](NC(=O)[C@H](CCC(=O)O)NC(=O)[C@H](C)NC(=O)[C@H](CCC(N)=O)NC(=O)[C@H](CCC(=O)O)NC(=O)[C@H](CCCNC(=N)N)NC(=O)[C@H](CCC(N)=O)NC(=O)[C@H](CCCCN)NC(=O)[C@H](CCCCN)NC(=O)[C@H](CCC(N)=O)NC(=O)[C@H](CCCCN)NC(=O)[C@H](CCC(=O)O)NC(=O)[C@H](CCC(N)=O)NC(=O)[C@H](CCC(=O)O)NC(=O)[C@H](CC(C)C)NC(=O)[C@H](CC(C)C)NC(=O)[C@@H](NC(=O)[C@H](CCCCN)NC(=O)[C@H](CCCCNC(=O)CC[C@H](NC(=O)CCCCCCCCCCCCCCC(=O)O)C(=O)O)NC(=O)[C@H](CC(C)C)NC(=O)[C@H](CCCCN)NC(=O)[C@@H](NC(=O)[C@@H]1CCCN1C(=O)[C@H](NC(=O)[C@H](CC(=O)O)NC(=O)[C@H](CC(C)C)NC(=O)[C@H](CO)NC(=O)[C@H](CC(C)C)NC(=O)[C@@H](NC(=O)[C@@H](NC(C)=O)[C@@H](C)CC)C(C)C)C(C)C)[C@@H](C)CC)[C@@H](C)CC)[C@@H](C)O)C(=O)N[C@@H](CCC(N)=O)C(=O)N[C@H](C(=O)N[C@@H](CC(C)C)C(=O)N[C@@H](C)C(=O)N[C@@H](CCC(N)=O)C(=O)N[C@H](C(N)=O)C(C)C)[C@@H](C)CC [compound 51] (Ac-IVLSLD[dV]PIKLK([γGlu-C16 diacid])KILLEQEKQKKQREQAETN[Abu]QILAQV-NH2)	9.92	9 % I	< 6.60	102%	73%	97%	0/0 ^ %	−27%	−19%	−1%	24 h	Buffer stability pH 4.5 % purity loss ([4]; 100 mM acetate buffer pH 4.5): 0/0 ^ %
CCCCC(=O)N[C@H](C(=O)N[C@@H](CC(C)C)C(=O)N[C@@H](CO)C(=O)N[C@@H](CC(C)C)C(=O)N[C@@H](CC(=O)O)C(=O)N[C@@H](C(=O)N1CCC[C@H]1C(=O)N[C@H](C(=O)N[C@@H](CCCCN)C(=O)N[C@@H](CC(C)C)C(=O)N[C@@H](CCCCNC(=O)CC[C@H](NC(=O)CCCCCCCCCCCCCCC(=O)O)C(=O)O)C(=O)N[C@@H](CCCCN)C(=O)N[C@H](C(=O)N[C@@H](CC(C)C)C(=O)N[C@@H](CC(C)C)C(=O)N[C@@H](CCC(=O)O)C(=O)N[C@@H](CCC(N)=O)C(=O)N[C@@H](CCC(=O)O)C(=O)N[C@@H](CCCCN)C(=O)N[C@@H](CCC(N)=O)C(=O)N[C@@H](CCCCN)C(=O)N[C@@H](CCCCN)C(=O)N[C@@H](CCC(N)=O)C(=O)N[C@@H](CCCNC(=N)N)C(=O)N[C@@H](CCC(=O)O)C(=O)N[C@@H](CCC(N)=O)C(=O)N[C@@H](C)C(=O)N[C@@H](CCC(=O)O)C(=O)N[C@H](C(=O)N[C@@H](CC(N)=O)C(=O)NC(C)(C)C(=O)N[C@@H](CCC(N)=O)C(=O)N[C@H](C(=O)N[C@@H](CC(C)C)C(=O)N[C@@H](C)C(=O)N[C@@H](CCC(N)=O)C(=O)N[C@H](C(N)=O)C(C)C)[C@@H](C)CC)[C@@H](C)O)[C@@H](C)CC)[C@@H](C)CC)C(C)C)C(C)C [compound 80] (Pentanoyl-VLSLD[dV]PIKLK([γGlu-C16 diacid])KILLEQEKQKKQREQAETN[Aib]QILAQV-NH2)	9.46	10 % I	< 6.60	101%	98%	104%	0/nd ^ %					
CC[C@H](C)[C@H](NC)C(=O)N[C@H](C(=O)N[C@@H](CC(C)C)C(=O)N[C@@H](CO)C(=O)N[C@@H](CC(C)C)C(=O)N[C@@H](CC(=O)O)C(=O)N[C@@H](C(=O)N1CCC[C@H]1C(=O)N[C@H](C(=O)N[C@@H](CCCCN)C(=O)N[C@@H](CC(C)C)C(=O)N[C@@H](CCCCNC(=O)CC[C@H](NC(=O)CCCCCCCCCCCCCCCCC(=O)O)C(=O)O)C(=O)N[C@@H](CCCCN)C(=O)N[C@H](C(=O)N[C@@H](CC(C)C)C(=O)N[C@@H](CC(C)C)C(=O)N[C@@H](CCC(=O)O)C(=O)N[C@@H](CCC(N)=O)C(=O)N[C@@H](CCC(=O)O)C(=O)N[C@@H](CCCCN)C(=O)N[C@@H](CCC(N)=O)C(=O)N[C@@H](CCCCN)C(=O)NC(C)(C)C(=O)N[C@@H](CCC(N)=O)C(=O)N[C@@H](CCCNC(=N)N)C(=O)N[C@@H](CCC(=O)O)C(=O)N[C@@H](CCC(N)=O)C(=O)N[C@@H](C)C(=O)N[C@@H](CCC(=O)O)C(=O)N[C@H](C(=O)N[C@@H](CC(N)=O)C(=O)NC(C)(C)C(=O)N[C@@H](CCC(N)=O)C(=O)N[C@H](C(=O)N[C@@H](CC(C)C)C(=O)N[C@@H](C)C(=O)N[C@@H](CCC(N)=O)C(=O)N[C@H](C(N)=O)C(C)C)[C@@H](C)CC)[C@@H](C)O)[C@@H](C)CC)[C@@H](C)CC)C(C)C)C(C)C [compound 145] (H-[NMeI]VLSLD[dV]PIKLK([γGlu-C18 diacid])KILLEQEKQK[Aib]QREQAETN[Aib]QILAQV-NH2)							0.0/Not Tested %	−23%	−21%	−14%	>24 h	pEC50 (rat CRF2 a): 10.30; remaining at 2 h [5]: 76%; AUC(0-t) [6]: 4200 ng·h/mL; Cmax [6]: 295 ng/mL; AUC(0-t) ([7]; IV, 0.05 mg/kg): 4100 ng·h/mL; half-life ([7]; IV, 0.05 mg/kg): 348 min; Tmax ([7]; SC, 0.1 mg/kg): 8 h
Ac-IVLSLDvPIKLK*KILLEQEKQKKQREQAETN4-PipQILAQV-NH2												not cleaved (Rat PLM): 96% remaining at 2 hours; not cleaved (Human PLM): 104% remaining at 2 hours
